The text below walks through data of patent US9206188B2, “Substituted pyrrolo[2,3-b]pyridines as ITK and JAK inhibitors” (Arrien Pharmaceuticals LLC, priority 2013, dated 2015).

One series concerns IL-4/STAT6. The series is described as follows: SelectScreen cell-based pathway profiling, IL-4/STAT6, STAT6-bla RA1, IL-4 stimulated. To be noted: STAT6-bla RA1 cells, IL-4 stim, 10-point titration.
In series [1] the test system is JAK/STAT. The series is described as follows: SelectScreen cell-based pathway profiling, JAK/STAT, SIE-bla HEK 293T, IFN-gamma stimulated. To be noted: SIE-bla HEK 293T cells, IFN-gamma stim.
Series [2] has as its system JAK/STAT. In words: SelectScreen cell-based pathway profiling, JAK/STAT, SIE-bla HEK 293T, IL-6 stimulated. To be noted: SIE-bla HEK 293T cells, IL-6 stim.
Another series has as its system JAK2/STAT5. In words: SelectScreen cell-based pathway profiling, JAK2/STAT5, irf1-bla TF1, EPO stimulated. To be noted: irf1-bla TF1 cells, EPO stim.
For series [3], the system named is Anti-CD3e antibody induced CD4+ T cell cytokine-IL-2, IL-4 and IFN-γ production. In words: Anti-CD3e antibody induced CD4+ T cell cytokine production in male BALB/c mice. In kind it is in vivo. The conditions noted are these: compared to Positive control; 1.5 hrs post-antibody treatment. As to the method:
1H-pyrrolo[2,3-b]pyridine series of compounds Mice IL-2, IL-4 and IFN-g: 60 mg/Kg is highly efficacious. There is a significant increase in serum IL-2, IL-4 and IFN-gamma (P<0.001) of Positive Control animals compared to negative control animals.

The subject of a further series is T cell receptor. In words: SelectScreen cell-based pathway profiling, T cell receptor, NFAT-bla Jurkat, anti-CD3:CD28 stimulated. The conditions noted are these: NFAT-bla Jurkat cells, anti-CD3:CD28 stim.
The test system of series [4] is IL-2 release from CD4+ T cells. In words: IL-2 release from CD4+ T cells using HTRF. In kind it is cell-based. The conditions noted are these: read-out: inhibition of IL-2 release from CD4+ T cells. (In general: TR-FRET usually uses a lanthanide donor and a delayed reading to cut background.)
The subject of series [5] is Established Type II Collagen Arthritis. In words: 11 day mouse established type II collagen arthritis, PO, BID. In kind it is in vivo, DBA/1OlaHsd Mouse. An excerpt: Effects of 1H-pyrrolo[2,3-b]pyridine Series of Compounds Administered PO, BID in 11 Day DBA/1OlaHsd Mouse Established Type II Collagen Arthritis

On to JAK Inhibitor I, for which the IC50 turned out to be 14.5 nM with IL-4/STAT6, 83.5 nM in the series with JAK/STAT [1], 22 nM in the series on JAK/STAT [2] and 6.92 nM in the series on JAK2/STAT5.
Turning to `C[C@@H]1C[C@H]2[C@@H]3CCC4=CC(=O)C=C[C@]4(C)[C@@]3(F)[C@@H](O)C[C@]2(C)[C@@]1(O)C(=O)CO` [Dexamethasone], in series [3], the “serum IFN-gamma” value is “significant decrease”, the “serum IL-2” value is listed as “significant decrease” and the “serum IL-4” value is “significant decrease”.
`Cn1cc(C2=C(c3cn(CCCSC(=N)N)c4ccccc34)C(=O)NC2=O)c2ccccc21` [Ro-31-8220] showed an IC50 in the series on T cell receptor of 615 nM.
As to `COc1cc(C)c(Sc2cnc(NC(=O)c3ccc(CNC(C)C(C)(C)C)cc3)s2)cc1C(=O)N1CCN(C(C)=O)CC1` (stereo not drawn) [BMS509744], the IC50 in series [4] was 350 nM.
For `C[C@@H]1CCN(C(=O)CC#N)C[C@@H]1N(C)c1ncnc2[nH]ccc12` [Tofacitinib], in series [5] (collagen-induced arthritis in mice), the “effectiveness, suppression of the inflammatory response” value was found to be 97%. Also, in series [5] (series 100 mg/kg group, Tofacitinib 60 mg/Kg), the body weight result is “body weight change from day 1”. For the same compound, in series [5] (treated mice, in vivo studies), the fever entry is reported as “had fever”. Moreover, in series [3], the “serum IFN-gamma” value is on record as “significant decrease”, the “serum IL-2” value is given as “significant decrease” and the “serum IL-4” value is “significant decrease”.
